The source of these data is patent US6087355A, “Cephalosporin antibiotics” (Microcide Pharmaceuticals, Inc., priority 1996, dated 2000).

Structures can show the parent of a compound that is named as a salt.

The subject of experiment [1] is S. aureus Col(Meth^R)(lac^-). The experiment in a line: In vitro MIC, agar dilution. The format is cell-based. Conditions: for MIC: Staphylococcus aureus, read-out: minimum inhibitory concentration (MIC). In short, it runs like this: (§1)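 Two-fold dilutions (128 to ≤0.25 μg/mL, in duplicate) were poured into Mueller-Hinton agar. Log-phase broth cultures were spot-inoculated at about 10^4 cfu per spot and incubated 35-36°C for 16-20 hours; the MIC was the lowest concentration inhibiting growth. Col is a high-level PBP2a producer; Col 8A is its isogenic PBP2a-lacking partner.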

The subject of experiment [2] is S. aureus Col8A(Meth^S)(lac^-). The experiment in a line: In vitro MIC, agar dilution. The experiment is classed as cell-based. The following applies: S. aureus Col8A(Meth^S)(lac^-); for MIC: Staphylococcus aureus, read-out: minimum inhibitory concentration (MIC). The method, boiled down: as §1
A general note: In agar dilution the substance is mixed into plates at graded concentrations.

Experiment [3] has as its system S. aureus strain ATCC 13709 (methicillin-susceptible). The experiment in a line: Murine model for lethal bacteremic peritonitis. The format is in vivo, female Swiss-Webster mice. The following applies: Staphylococcus aureus, ATCC13709, SC, 72 h; for responders at 0.3125 mg/kg / responders at 0.625 mg/kg / responders at 2.5 mg/kg / responders at 5 mg/kg: read-out: Survivors; for responders at 1.25 mg/kg: read-out: Survivors (converted); for ED50: two equal doses, IP challenge, read-out: ED50. In short, it runs like this:
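Female Swiss-Webster mice were challenged IP with an LD100 inoculum in 7% hog gastric mucin, then given test drug subcutaneously in twofold increments (0.01–512 mg/kg) as two equal doses at challenge and 2 h later, 10 mice per group. Survival was scored at 72 h; PD50 (total mg/kg) was derived by probit.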

Another experiment has as its system E. faecium VanA(Van^R). The experiment in a line: In vitro MIC, agar dilution. The format is cell-based. The following applies: for MIC: Enterococcus faecium, read-out: minimum inhibitory concentration (MIC). In short, it runs like this: (§2)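 Strains were spotted at roughly 10^4 cfu onto drug-containing Mueller-Hinton agar. MIC was read as the lowest inhibitory concentration after overnight incubation at 35-36 °C.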

The test system of a further experiment is E. faecium A491(Amp^R). The experiment can be described thus: In vitro MIC, agar dilution. The format is cell-based. The following applies: for MIC: Enterococcus faecium, read-out: minimum inhibitory concentration (MIC). In short, it runs like this:
as §2

Experiment [4] relates to S. aureus 76(Meth^R)(lac^+). The experiment in a line: In vitro MIC, agar dilution. The format is cell-based. Conditions: for MIC: Staphylococcus aureus, read-out: minimum inhibitory concentration (MIC). The method, boiled down: as §2
In experiment [5] the test system is S. aureus Spain #356(Meth^R). The experiment can be described thus: In vitro MIC, agar dilution. Conditions: for MIC: Staphylococcus aureus, read-out: minimum inhibitory concentration (MIC). The format is cell-based. In short, it runs like this:
as §2

Experiment [6] relates to S. aureus ATCC 13709(Meth^S). The experiment can be described thus: In vitro MIC, agar dilution. The format is cell-based. The following applies: for MIC: Staphylococcus aureus, ATCC13709, S. aureus ATCC 13709(Meth^S), read-out: minimum inhibitory concentration (MIC). In short, it runs like this: as §2
In another experiment the test system is P. aeruginosa ATCC 27853. The experiment can be described thus: In vitro MIC, agar dilution. The following applies: for MIC: Pseudomonas aeruginosa, ATCC27853, read-out: minimum inhibitory concentration (MIC). The format is cell-based. The method, boiled down: as §2
Another experiment concerns E. coli ATCC 25992. The experiment can be described thus: In vitro MIC, agar dilution. The format is cell-based. The following applies: for MIC: Escherichia coli, ATCC25992, read-out: minimum inhibitory concentration (MIC). The method, boiled down: as §2
Experiment [7] relates to S. haemolyticus 05(Meth^R). The experiment can be described thus: In vitro MIC, agar dilution. The experiment is classed as cell-based. Conditions: for MIC: Staphylococcus haemolyticus, read-out: minimum inhibitory concentration (MIC). In short, it runs like this:
as §2

In the next experiment the test system is S. aureus ATCC 29213. The experiment can be described thus: In vitro MIC, agar dilution. The format is cell-based. Conditions: for MIC: Staphylococcus aureus, ATCC29213, read-out: minimum inhibitory concentration (MIC). In short, it runs like this: as §2
In another experiment the test system is E. faecalis VanB(Van^R). The experiment can be described thus: In vitro MIC, agar dilution. The experiment is classed as cell-based. Conditions: for MIC: Enterococcus faecalis, read-out: minimum inhibitory concentration (MIC). In short, it runs like this:
as §2

A further experiment has as its system E. faecium ATCC 35667. The experiment in a line: In vitro MIC, agar dilution. The format is cell-based. Conditions: for MIC: Enterococcus faecium, ATCC35667, read-out: minimum inhibitory concentration (MIC). In short, it runs like this:
as §2

Experiment [8] concerns S. aureus PC1(Meth^S)(lac^+). The experiment can be described thus: In vitro MIC, agar dilution. Conditions: for MIC: Staphylococcus aureus, read-out: minimum inhibitory concentration (MIC). The experiment is classed as cell-based. In short, it runs like this:
as §2

The subject of another experiment is E. faecalis ATCC 29212. The experiment can be described thus: In vitro MIC, agar dilution. The experiment is classed as cell-based. Conditions: for MIC: Enterococcus faecalis, ATCC29212, read-out: minimum inhibitory concentration (MIC). In short, it runs like this: as §2
Experiment [9] concerns S. aureus ATCC 33593(Meth^R). The experiment can be described thus: In vitro MIC, agar dilution. The experiment is classed as cell-based. The following applies: for MIC: Staphylococcus aureus, ATCC33593, read-out: minimum inhibitory concentration (MIC). The method, boiled down: as §2

In the case of `Nc1nc(/C(=N/O)C(=O)N[C@@H]2C(=O)N3C(C(=O)O)=C(Sc4ccncc4CSC4CCNC4)CS[C@H]23)cs1` (stereo partly drawn) [Cmpd 17, (7R)-7-[(Z)-2-(aminothiazol-4-yl)-2-(hydroxyimino)acetamido]-3-[3-(3-pyrrolidinothiomethyl)pyrid-4-ylthio]-3-cephem-4-carboxylate, trifluoroacetic acid salt], the MIC in [1] is 2 µg/mL; in experiment [2], 0.5 µg/mL; in the experiment on E. faecium VanA(Van^R), 0.25 µg/mL; in the experiment on E. faecium A491(Amp^R) it was above 32 µg/mL; in [4], 4 µg/mL; in experiment [5] it was 4 µg/mL. The MIC in experiment [6] is 0.25 µg/mL; in the experiment on P. aeruginosa ATCC 27853, above 32 µg/mL; in the experiment with E. coli ATCC 25992 it was 2 µg/mL; in [7], 8 µg/mL; in the experiment on S. aureus ATCC 29213 it was 0.25 µg/mL; with E. faecalis VanB(Van^R), 0.5 µg/mL. Moreover, the MIC with E. faecium ATCC 35667 was 1 µg/mL; in experiment [8] it was 0.25 µg/mL; in the experiment on E. faecalis ATCC 29212 it was 0.13 µg/mL; in experiment [9] it was 2 µg/mL. Moreover, the responders at 0.3125 mg/kg in experiment [3] worked out at 20%. In addition, the responders at 0.625 mg/kg in experiment [3] worked out at 20%. Also, in experiment [3], the responders at 1.25 mg/kg is 50%. Besides, in experiment [3], the responders at 2.5 mg/kg was determined as 30%. For the same molecule, the responders at 5 mg/kg in [3] is 60%. Further, the median effective dose (ED50) (commonly the midpoint of the dose-response relation) in experiment [3] turned out to be 3.59 mg/kg.
`NCCCSCc1cnccc1SC1=C(C(=O)O)N2C(=O)[C@@H](NC(=O)/C(=N\O)c3nc(N)sc3Cl)[C@H]2SC1` [Cmpd 27, (7R)-7-[(Z)-2-(2-amino-5-chlorothiazol-4-yl)-2-(hydroxyimino)acetamido]-3-[3-(3-aminopropyl)thiomethylpyrid-4-ylthio]-3-cephem-4-carboxylate, trifluoroacetic acid salt]: the MIC in experiment [1] is 0.5 µg/mL; in [2], 0.13 µg/mL; in the experiment with E. faecium VanA(Van^R) it was 0.5 µg/mL; in the experiment with E. faecium A491(Amp^R), 4 µg/mL; in experiment [4], 1 µg/mL; in experiment [5] it was 1 µg/mL. Moreover, the MIC is 0.13 µg/mL in [6]; 32 µg/mL in the experiment on P. aeruginosa ATCC 27853; 8 µg/mL with E. coli ATCC 25992; 2 µg/mL in experiment [7]; 0.25 µg/mL in the experiment with S. aureus ATCC 29213; at most 0.06 µg/mL in the experiment with E. faecalis VanB(Van^R). The MIC was 0.25 µg/mL with E. faecium ATCC 35667, 0.25 µg/mL in [8], at most 0.06 µg/mL in the experiment with E. faecalis ATCC 29212 and 1 µg/mL in experiment [9]. The responders at 0.3125 mg/kg in [3] was determined as 0%. In addition, the responders at 0.625 mg/kg in experiment [3] turned out to be 0%. Also, the responders at 1.25 mg/kg in experiment [3] was 20%. For the same molecule, the responders at 2.5 mg/kg in experiment [3] turned out to be 60%. Moreover, the responders at 5 mg/kg in [3] is 70%. In addition, the ED50 in experiment [3] is 2.64 mg/kg.
As to `CNCCNCCSCc1nnsc1SC1=C(C(=O)O)N2C(=O)[C@@H](NC(=O)/C(=N\OCCF)c3nc(N)sc3Cl)[C@H]2SC1.O=C(O)C(F)(F)F` [Cmpd 28, (7R)-7-[(Z)-2-(2-amino-5-chlorothiazol-4-yl)-2-(2-fluoroethoxyimino)acetamido]-3-[(methylaminoethylaminoethylthiomethyl)-1,2,3-thiadiazol-5-ylthio]-3-cephem-4-carboxylate, trifluoroacetic acid salt], the MIC worked out at 2 µg/mL in [1]; 0.25 µg/mL in experiment [2]; 4 µg/mL in the experiment on E. faecium VanA(Van^R); 16 µg/mL with E. faecium A491(Amp^R); 2 µg/mL in experiment [4]; 2 µg/mL in experiment [5]. In addition, the MIC is 0.13 µg/mL in [6]; 32 µg/mL with P. aeruginosa ATCC 27853; 2 µg/mL in the experiment on E. coli ATCC 25992; 4 µg/mL in experiment [7]; 1 µg/mL with S. aureus ATCC 29213; 0.25 µg/mL in the experiment on E. faecalis VanB(Van^R). Moreover, the MIC in the experiment with E. faecium ATCC 35667 stood at 1 µg/mL; in [8], 0.5 µg/mL; in the experiment on E. faecalis ATCC 29212, 0.13 µg/mL; in [9], 4 µg/mL. Further, the responders at 0.3125 mg/kg in [3] was 10%. Also, the responders at 0.625 mg/kg in experiment [3] was determined as 10%. Moreover, the responders at 1.25 mg/kg in [3] was 40%. In experiment [3], the responders at 2.5 mg/kg turned out to be 30%. In addition, in experiment [3], the responders at 5 mg/kg was 70%. Further, in [3], the ED50 worked out at 3.01 mg/kg.
On to `Nc1nc(/C(=N/O)C(=O)N[C@@H]2C(=O)N3C(C(=O)O)=C(Sc4ccncc4CSCCNC=O)CS[C@H]23)c(Cl)s1` [Cmpd 63, (7R)-7-[(Z)-2-(2-amino-5-chlorothiazol-4-yl)-2-(hydroxyimino)acetamido]-3-(3-(N-formylaminoethylthiomethyl)pyrid-4-ylthio)-3-cephem-4-carboxylate, trifluoroacetic acid salt], for which the MIC in experiment [1] was found to be 2 µg/mL; in experiment [2], 0.13 µg/mL; with E. faecium VanA(Van^R), 1 µg/mL; with E. faecium A491(Amp^R), 16 µg/mL; in experiment [4], 2 µg/mL; in [5], 4 µg/mL. Moreover, the MIC in experiment [6] was 0.25 µg/mL; in the experiment with P. aeruginosa ATCC 27853, above 32 µg/mL; in the experiment on E. coli ATCC 25992, 16 µg/mL; in [7], 2 µg/mL; in the experiment with S. aureus ATCC 29213, 0.25 µg/mL; in the experiment with E. faecalis VanB(Van^R), 0.25 µg/mL. Moreover, the MIC in the experiment on E. faecium ATCC 35667 was 0.5 µg/mL; in [8], 0.25 µg/mL; in the experiment on E. faecalis ATCC 29212 it was 0.13 µg/mL; in experiment [9] it was 2 µg/mL.
Take “(7R)-7-[(Z)-2-(aminothiazol-4-yl)-2-(hydroxyimino)acetamido]-3-[(guanidinoethylaminoethylthiomethyl)-1,2,3-thiadiazol-5-ylthio]-3-cephem-4-carboxylate, trifluoroacetic acid salt [Cmpd 12]”: the “minimum inhibitory concentration (MIC)” value in experiment [1] is 2 µg/mL; in [2] it was 0.5 µg/mL; with E. faecium VanA(Van^R) it was 4 µg/mL; in the experiment with E. faecium A491(Amp^R), above 32 µg/mL; in experiment [4], 2 µg/mL; in experiment [5] it was 2 µg/mL. The “minimum inhibitory concentration (MIC)” value is 0.25 µg/mL in experiment [6] (S. aureus ATCC 13709(Meth^S)); above 32 µg/mL in the experiment on P. aeruginosa ATCC 27853; 8 µg/mL with E. coli ATCC 25992; 2 µg/mL in experiment [7]; 0.5 µg/mL in the experiment on S. aureus ATCC 29213; 0.5 µg/mL in the experiment on E. faecalis VanB(Van^R). The “minimum inhibitory concentration (MIC)” value in the experiment on E. faecium ATCC 35667 stood at 1 µg/mL; in experiment [8], 0.5 µg/mL; in the experiment on E. faecalis ATCC 29212 it was 0.25 µg/mL; in [9], 2 µg/mL.
